# Several values for one entry are separate records, joined by “and”; a condition that tells them apart may be missing. Equal entries are not always repeated. Marks after values point to notes of the source that are not given here.
# Key:
# Assay type in all cases: in vivo
# [1] = test system: isolated guinea pig hearts; assay: Recovery of post-ischemic cardiac function (HR, CF, AF, LVDP) in isolated working guinea pig hearts; conditions: 5 mg/kg/day oral for 4 weeks; for aortic flow (AF), After 60 min of RE / coronary flow (CF), After 60 min of RE / heart rate (HR), After 60 min of RE / left ventricular developed pressure (LVDP), After 60 min of RE / aortic flow (AF), After 120 min of RE / heart rate (HR), After 120 min of RE / coronary flow (CF), After 120 min of RE / left ventricular developed pressure (LVDP), After 120 min of RE: 30 min ischemia; for aortic flow (AF), After 60 min of RE / coronary flow (CF), After 60 min of RE / heart rate (HR), After 60 min of RE / left ventricular developed pressure (LVDP), After 60 min of RE: 60 min reperfusion; for aortic flow (AF), After 120 min of RE / heart rate (HR), After 120 min of RE / coronary flow (CF), After 120 min of RE / left ventricular developed pressure (LVDP), After 120 min of RE: 120 min reperfusion; for aortic flow (AF), Before ISA / coronary flow (CF), Before ISA / heart rate (HR), Before ISA / left ventricular developed pressure (LVDP), Before ISA: isolated heart before ischemia
# Experimental: Experimental studies were designed to determine if CoQ9 could protect guinea pig hearts from ischemia reperfusion injury. Myocardial ischemia reperfusion injury model is the most widely accepted experimental method for assessment of parameters related to cardio-protection. Guinea pigs were randomly divided into three groups: Group II and Group III were supplemented with 5 mg/kg bodyweight of CoQ9 and CoQ10, respectively, for 4 weeks while Group I served as control (C). After 4 weeks, the guinea pigs were sacrificed and the isolated hearts were perfused via working mode. The isolated hearts were subjected to ischemia for 30 min followed by 2 hours of reperfusion. Cardioprotection was assessed by evaluating left ventricular function, ventricular arrhythmias, myocardial infarct size and cardiomyocyte apoptosis.
# Similar types of post-ischemic recovery of HR, CF, and LVDP were registered (Table 1) in isolated hearts obtained from guinea pigs treated with 5 mg/kg/day of CoQ10 or CoQ9 for 4 weeks. The improvement in post-ischemic cardiac function (HR, CF, AF, and LVDP) was more pronounced in the CoQ9 treated group than in the CoQ10 treated group.
# Protective effect of CoQ9 and CoQ10 against from Ventricular Fibrillation (VF): Healthy Male Hartley guinea pigs of about 350-400 gm body weight were randomly divided into three groups, Control, CoQ9 and CoQ10. The guinea pigs were given orally 5 mg/kg body weight [in 0.5 ml water] of vehicle only, CoQ9 or CoQ10 respectively by gavage once a day. […] Treatment was continued for 30 days, the animals had free access to food and water. After 30 days, all animals were anesthetized, heparinized and sacrificed. The hearts excised, and isolated for perfusion via Langendorff mode for 5 min of washout period of the Langendorff heart perfusion, the pulmonary vein was cannulated, and the heart was switched to the “working” mode via perfusion of the left atria (at a filling pressure of 17 cm of the buffer, 1.7 kPa) as it was described in detail elsewhere. Global ischemia was imposed by clamping the atrial and aortic cannulas. Epicardial ECG was recorded through out the experiment, by attaching two silver electrodes directly to the myocardium and data collected using a data acquisition system (ADInstruments, Powerlab, Castle Hill, Australia). ECGs were analyzed to determine ventricular fibrillation (VF) and ventricular tachycardia (VT). The first 10 min of reperfusion was done in Langendorf (‘nonworking’) mode in order to avoid the development of reperfusion-induced VT and VF during the ‘working’ heart reperfusion. After the initial 2 min of VT or/and VF (sustained VF) in Langendorff reperfusion, hearts were defibrillated (if it was necessary), reperfused for an additional 8 min in Langendorff mode, and switched to ‘working heart’ reperfusion, and myocardial function was recorded. The heart was considered to be in VF if an irregular undulating baseline was apparent on the ECG. The data of VT, VF and sinus rhythm show their durations (in seconds) within the first 120 s of nonworking Langendorff reperfusion. The incidences of reperfusion-induced ventricular fibrillation (VF) for CoQ9 and CoQ10 are depicted in FIG. 1. […] Incidence of VF was reduced from 92% (control group) to 25% (*p<0.05) and 8% (*p<0.05) with 5 mg/kg/day of CoQ10 and CoQ9, respectively.
# CoQ9 and CoQ10 treatment improves post-ischemic cardiac function (HR, CF, AF, and LVDP): Animal preparation, drug pretreatment and isolated working heart preparation were done as described in example 1. The isolated hearts obtained from group II and Group III guinea pigs treated with 5 mg/kg/day of […], for 4 weeks were subjected to 30 min ischemia followed by 120 min of reperfusion. […]
# [2] = test system: isolated guinea pig hearts; assay: Reperfusion-induced ventricular fibrillation in isolated ischemic/reperfused hearts from orally treated guinea pigs; conditions: 5 mg/kg/day oral for 4 weeks; 30 min global ischemia then reperfusion; drug-free control 92%
# Experimental: FIG. 1. The incidence of reperfusion-induced ventricular fibrillation (VF). Guinea pigs were orally treated with a daily dose of 5 mg/kg of CoQ10 or CoQ9 or vehicle control for 4 weeks, and then hearts were excised, and isolated for perfusion via Langendorff mode and subjected to 30 min of global ischemia followed by 120 min of reperfusion. N=12 in each group, *p<0.05 compared to the drug-free control (C) group.
# (§1) Experimental studies were designed to determine if CoQ9 could protect guinea pig hearts from ischemia reperfusion injury. Myocardial ischemia reperfusion injury model is the most widely accepted experimental method for assessment of parameters related to cardio-protection. […] Cardioprotection was assessed by evaluating left ventricular function, ventricular arrhythmias, myocardial infarct size and cardiomyocyte apoptosis.
# Protective effect of CoQ9 and CoQ10 against from Ventricular Fibrillation (VF): Healthy Male Hartley guinea pigs of about 350-400 gm body weight were randomly divided into three groups, Control, CoQ9 and CoQ10. […] Epicardial ECG was recorded through out the experiment, by attaching two silver electrodes directly to the myocardium and data collected using a data acquisition system (ADInstruments, Powerlab, Castle Hill, Australia). ECGs were analyzed to determine ventricular fibrillation (VF) and ventricular tachycardia (VT). […]
# [3] = test system: isolated guinea pig hearts; assay: Cardiomyocyte apoptosis (TUNEL) in isolated ischemic/reperfused guinea pig hearts; conditions: 5 mg/kg/day oral for 4 weeks; end of reperfusion; percent of total myocyte population; control 21±2%
# Experimental: FIG. 2/B. Effects of CoQ10 and CoQ9 on cardiomyocyte apoptosis in isolated guinea pig hearts subjected to 30 min of ischemia followed by 120 min of reperfusion. The bars represent mean±SD of cardiomyocyte apoptosis for control, CoQ10 and CoQ9 supplemented groups. *p<0.05 compared to the untreated age-matched ischemic/reperfused drug-free control (C) value.
# as §1
# CoQ9 and CoQ10 treatment reduces apoptosis of cardiomyocytes: Animal preparation, drug pretreatment and isolated working heart preparation were done as described in example 1. […] The fluorescence staining was viewed with a confocal laser microscope. The number of apoptotic cells was counted and expressed as a percent of total myocyte population. […] Apoptosis of cardiomyocytes determined by Tunel method in control group was about 21±2% at the end of reperfusion.
smiles,measurement,setting,value
"COC1=C(OC)C(=O)C(C/C=C(\C)CC/C=C(\C)CC/C=C(\C)CC/C=C(\C)CC/C=C(\C)CC/C=C(\C)CC/C=C(\C)CC/C=C(\C)CCC=C(C)C)=C(C)C1=O [CoQ9, Coenzyme Q9]","aortic flow (AF), After 60 min of RE",[1],27 ± 1* ml/min
same,"coronary flow (CF), After 60 min of RE",[1],22 ± 2* ml/min
same,"heart rate (HR), After 60 min of RE",[1],240 ± 4* beats/min
same,"left ventricular developed pressure (LVDP), After 60 min of RE",[1],80 ± 2* mm Hg
same,"aortic flow (AF), After 120 min of RE",[1],26.0 ± 1.0 mL/min
same,"heart rate (HR), After 120 min of RE",[1],233±4 beats/min
same,"aortic flow (AF), After 120 min of RE",[1]; listed as CoQ 9,26 ± 1 mL/min
same,"coronary flow (CF), After 120 min of RE",[1]; listed as CoQ 9,25 ± 2 mL/min
same,"left ventricular developed pressure (LVDP), After 120 min of RE",[1]; listed as CoQ 9,75±2 mm Hg
same,"aortic flow (AF), After 120 min of RE",[1]; listed as Q9,26 ± 1* ml/min
same,"coronary flow (CF), After 120 min of RE",[1]; listed as Q9,25 ± 2* ml/min
same,"heart rate (HR), After 120 min of RE",[1]; listed as Q9,233 ± 4* beats/min
same,"left ventricular developed pressure (LVDP), After 120 min of RE",[1]; listed as Q9,75 ± 2* mm Hg
same,"aortic flow (AF), Before ISA",[1],35 ± 2 mL/min
same,"coronary flow (CF), Before ISA",[1],23 ± 2 mL/min
same,"heart rate (HR), Before ISA",[1],248 ± 5 beats/min
same,"left ventricular developed pressure (LVDP), Before ISA",[1],106 ± 4 mm Hg
same,"coronary flow (CF), Before ISA",[1]; listed as Q9,23 ± 2 mL/min
same,incidence of reperfusion-induced ventricular fibrillation (VF),[2],8%
same,apoptotic cardiomyocytes (Tunel method),[3],7±1.5%
"COC1=C(OC)C(=O)C(C/C=C(\C)CC/C=C(\C)CC/C=C(\C)CC/C=C(\C)CC/C=C(\C)CC/C=C(\C)CC/C=C(\C)CC/C=C(\C)CC/C=C(\C)CCC=C(C)C)=C(C)C1=O [CoQ10, Coenzyme Q10, reference compound]","aortic flow (AF), After 60 min of RE",[1],20 ± 2* ml/min
same,"coronary flow (CF), After 60 min of RE",[1],20 ± 1* ml/min
same,"heart rate (HR), After 60 min of RE",[1],228 ± 3* beats/min
same,"left ventricular developed pressure (LVDP), After 60 min of RE",[1],71 ± 3* mm Hg
same,"aortic flow (AF), After 120 min of RE",[1],18.0 ± 2.0 mL/min and 18 ± 2 mL/min
same,"coronary flow (CF), After 120 min of RE",[1],19 ± 1 mL/min
same,"heart rate (HR), After 120 min of RE",[1],217±3 beats/min
same,"left ventricular developed pressure (LVDP), After 120 min of RE",[1],64±3 mm Hg
same,"aortic flow (AF), After 120 min of RE",[1]; listed as Q10,18 ± 2* ml/min
same,"coronary flow (CF), After 120 min of RE",[1]; listed as Q10,19 ± 1* ml/min
same,"heart rate (HR), After 120 min of RE",[1]; listed as Q10,217 ± 3* beats/min
same,"left ventricular developed pressure (LVDP), After 120 min of RE",[1]; listed as Q10,64 ± 3* mm Hg
same,"aortic flow (AF), Before ISA",[1],34 ± 2 mL/min
same,"heart rate (HR), Before ISA",[1],261 ± 6 beats/min
same,"left ventricular developed pressure (LVDP), Before ISA",[1],100 ± 5 mm Hg
same,"coronary flow (CF), Before ISA",[1]; listed as CoQ 10,25 ± 2 mL/min
same,"coronary flow (CF), Before ISA",[1]; listed as Q10,25 ± 2 mL/min
same,incidence of reperfusion-induced ventricular fibrillation (VF),[2],25%
same,apoptotic cardiomyocytes (Tunel method),[3],6±1%

# From patent US20100209486A1, “Method of enhancing CoenzymeQ10 levels in mammals” (priority 2009, published 2010)
